Data from patent US10670605B2, “Cysteine reactive probes and uses thereof” (The Scripps Research Institute, priority 2015, dated 2020).

How the values were obtained:
Experiment in all cases: Competitive isoTOP-ABPP in situ (fragment-treated cells)
Type in all cases: cell-based
[1] = target: cysteines in MDA-MB-231 and Ramos cells (Homo sapiens, UniProt P46109); settings: 200 μM, insitu
[2] = target: cysteines in MDA-MB-231 and Ramos cells (Homo sapiens, UniProt P51610); settings: 200 μM, insitu, 231
[3] = target: cysteines in MDA-MB-231 and Ramos cells (Homo sapiens, UniProt Q96N67); settings: 200 μM, insitu, 231
[4] = target: T1, cysteines in MDA-MB-231 and Ramos cells (Homo sapiens, UniProt Q9NXV6); settings: 200 μM, insitu
T1 sequence (Q9NXV6 1-580): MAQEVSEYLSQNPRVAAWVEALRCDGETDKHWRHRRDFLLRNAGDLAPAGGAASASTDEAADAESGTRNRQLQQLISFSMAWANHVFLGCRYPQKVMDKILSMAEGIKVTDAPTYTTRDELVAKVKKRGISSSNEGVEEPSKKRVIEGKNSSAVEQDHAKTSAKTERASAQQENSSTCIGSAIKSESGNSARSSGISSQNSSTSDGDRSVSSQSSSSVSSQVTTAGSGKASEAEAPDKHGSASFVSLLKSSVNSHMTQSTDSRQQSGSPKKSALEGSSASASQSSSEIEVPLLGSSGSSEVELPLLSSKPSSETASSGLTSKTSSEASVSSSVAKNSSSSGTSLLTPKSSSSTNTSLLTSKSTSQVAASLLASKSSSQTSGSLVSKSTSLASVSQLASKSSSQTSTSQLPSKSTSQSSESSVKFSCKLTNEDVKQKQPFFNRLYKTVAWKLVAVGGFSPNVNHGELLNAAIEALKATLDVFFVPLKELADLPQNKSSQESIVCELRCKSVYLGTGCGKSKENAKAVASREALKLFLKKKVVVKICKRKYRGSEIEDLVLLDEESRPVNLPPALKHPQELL

[5] = target: cysteines in MDA-MB-231 and Ramos cells (Homo sapiens, UniProt O15446); settings: 200 μM, insitu, 231
[6] = target: cysteines in MDA-MB-231 and Ramos cells (Homo sapiens, UniProt Q8NBS9); settings: 200 μM, insitu
[7] = target: T2, cysteines in MDA-MB-231 and Ramos cells (Homo sapiens, UniProt Q9NTX5); settings: 200 μM, insitu, 231
T2 sequence (Q9NTX5 1-307): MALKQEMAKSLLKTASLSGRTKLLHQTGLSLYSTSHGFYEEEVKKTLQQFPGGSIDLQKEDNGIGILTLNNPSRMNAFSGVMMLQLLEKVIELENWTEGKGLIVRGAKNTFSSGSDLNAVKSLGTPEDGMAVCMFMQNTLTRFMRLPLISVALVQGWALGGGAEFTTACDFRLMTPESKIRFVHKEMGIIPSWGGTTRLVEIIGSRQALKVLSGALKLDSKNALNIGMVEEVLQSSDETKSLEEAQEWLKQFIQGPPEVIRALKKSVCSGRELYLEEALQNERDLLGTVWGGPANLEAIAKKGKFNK

[8] = target: T3, cysteines in MDA-MB-231 and Ramos cells (Homo sapiens, UniProt Q9Y570); settings: 200 μM, insitu
T3 sequence (Q9Y570 1-386): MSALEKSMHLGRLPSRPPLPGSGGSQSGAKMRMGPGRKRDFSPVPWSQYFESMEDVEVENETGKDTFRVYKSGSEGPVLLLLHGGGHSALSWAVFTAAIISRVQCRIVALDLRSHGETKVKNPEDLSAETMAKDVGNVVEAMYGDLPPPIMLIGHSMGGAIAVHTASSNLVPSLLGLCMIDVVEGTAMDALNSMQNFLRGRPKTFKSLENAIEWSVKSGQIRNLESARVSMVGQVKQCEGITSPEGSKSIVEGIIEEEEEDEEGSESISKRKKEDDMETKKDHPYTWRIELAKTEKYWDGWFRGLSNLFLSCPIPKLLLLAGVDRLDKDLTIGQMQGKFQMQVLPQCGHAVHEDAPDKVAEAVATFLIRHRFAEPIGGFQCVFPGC

[9] = target: cysteines in MDA-MB-231 and Ramos cells (Homo sapiens, UniProt P45984); settings: 200 μM, insitu
[10] = target: T4, cysteines in MDA-MB-231 and Ramos cells (Homo sapiens, UniProt A0AVT1); settings: 200 μM, insitu
T4 sequence (A0AVT1 1-1052): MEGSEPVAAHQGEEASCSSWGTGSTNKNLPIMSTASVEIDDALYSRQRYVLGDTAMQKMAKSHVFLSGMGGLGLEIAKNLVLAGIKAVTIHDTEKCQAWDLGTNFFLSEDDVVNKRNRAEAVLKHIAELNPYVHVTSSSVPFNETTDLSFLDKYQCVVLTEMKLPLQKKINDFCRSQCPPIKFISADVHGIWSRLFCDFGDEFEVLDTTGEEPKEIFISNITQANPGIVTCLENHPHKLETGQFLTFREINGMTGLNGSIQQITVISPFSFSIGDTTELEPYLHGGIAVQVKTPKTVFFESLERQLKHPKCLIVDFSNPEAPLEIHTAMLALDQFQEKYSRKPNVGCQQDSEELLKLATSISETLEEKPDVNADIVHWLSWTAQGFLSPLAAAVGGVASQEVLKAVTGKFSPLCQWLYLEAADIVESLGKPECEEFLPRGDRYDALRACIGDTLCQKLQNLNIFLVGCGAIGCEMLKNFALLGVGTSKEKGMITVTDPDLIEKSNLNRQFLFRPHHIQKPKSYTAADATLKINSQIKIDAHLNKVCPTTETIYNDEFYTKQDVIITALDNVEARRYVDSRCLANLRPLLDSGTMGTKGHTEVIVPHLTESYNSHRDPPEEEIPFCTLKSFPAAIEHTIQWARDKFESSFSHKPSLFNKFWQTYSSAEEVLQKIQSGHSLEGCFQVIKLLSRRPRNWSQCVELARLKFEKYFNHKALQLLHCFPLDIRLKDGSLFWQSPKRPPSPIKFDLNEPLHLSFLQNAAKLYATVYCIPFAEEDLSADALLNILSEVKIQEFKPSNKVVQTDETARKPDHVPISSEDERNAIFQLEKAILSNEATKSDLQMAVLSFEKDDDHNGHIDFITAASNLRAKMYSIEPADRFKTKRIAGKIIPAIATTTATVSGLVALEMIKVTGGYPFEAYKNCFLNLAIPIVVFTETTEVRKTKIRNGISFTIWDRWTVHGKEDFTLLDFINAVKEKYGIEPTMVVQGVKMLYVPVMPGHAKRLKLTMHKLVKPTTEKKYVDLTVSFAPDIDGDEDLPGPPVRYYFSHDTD

Sequence of cysteines in MDA-MB-231 and Ramos cells (Homo sapiens, UniProt O15446) (O15446 whole entry): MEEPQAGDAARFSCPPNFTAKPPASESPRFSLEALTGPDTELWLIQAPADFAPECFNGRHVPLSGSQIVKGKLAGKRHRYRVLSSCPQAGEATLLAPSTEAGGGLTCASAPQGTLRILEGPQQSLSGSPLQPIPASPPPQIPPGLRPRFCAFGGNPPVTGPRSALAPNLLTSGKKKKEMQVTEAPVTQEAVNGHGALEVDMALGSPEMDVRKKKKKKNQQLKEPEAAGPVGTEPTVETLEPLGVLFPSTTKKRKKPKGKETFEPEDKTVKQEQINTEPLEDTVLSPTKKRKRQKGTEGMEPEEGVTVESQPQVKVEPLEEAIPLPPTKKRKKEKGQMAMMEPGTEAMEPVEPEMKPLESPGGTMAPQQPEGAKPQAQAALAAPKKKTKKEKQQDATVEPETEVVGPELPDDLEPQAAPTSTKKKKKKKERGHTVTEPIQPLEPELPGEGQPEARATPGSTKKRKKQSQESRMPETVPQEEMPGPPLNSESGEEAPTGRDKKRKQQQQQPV
Sequence of cysteines in MDA-MB-231 and Ramos cells (Homo sapiens, UniProt P46109) (P46109 whole entry): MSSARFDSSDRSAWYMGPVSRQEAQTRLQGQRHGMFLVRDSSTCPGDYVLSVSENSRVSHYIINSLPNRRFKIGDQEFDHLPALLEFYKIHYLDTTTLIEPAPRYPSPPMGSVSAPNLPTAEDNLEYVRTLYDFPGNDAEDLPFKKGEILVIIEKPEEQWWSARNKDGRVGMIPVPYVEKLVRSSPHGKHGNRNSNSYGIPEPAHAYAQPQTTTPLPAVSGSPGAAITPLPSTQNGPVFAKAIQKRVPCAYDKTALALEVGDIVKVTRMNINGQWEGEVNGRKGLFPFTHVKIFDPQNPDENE
Sequence of cysteines in MDA-MB-231 and Ramos cells (Homo sapiens, UniProt P45984) (P45984 whole entry): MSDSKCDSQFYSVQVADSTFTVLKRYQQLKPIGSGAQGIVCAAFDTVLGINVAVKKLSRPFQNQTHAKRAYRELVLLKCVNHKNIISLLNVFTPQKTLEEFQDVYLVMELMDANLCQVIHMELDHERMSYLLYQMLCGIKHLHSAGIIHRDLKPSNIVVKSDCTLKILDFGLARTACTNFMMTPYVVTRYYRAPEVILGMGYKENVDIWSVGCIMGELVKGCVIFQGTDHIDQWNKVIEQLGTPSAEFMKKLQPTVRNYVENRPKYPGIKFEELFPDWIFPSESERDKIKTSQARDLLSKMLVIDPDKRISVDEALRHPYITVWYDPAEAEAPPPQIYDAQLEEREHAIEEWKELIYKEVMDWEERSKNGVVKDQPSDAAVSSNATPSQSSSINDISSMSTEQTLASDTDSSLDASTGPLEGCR
Sequence of cysteines in MDA-MB-231 and Ramos cells (Homo sapiens, UniProt P51610) (P51610 whole entry): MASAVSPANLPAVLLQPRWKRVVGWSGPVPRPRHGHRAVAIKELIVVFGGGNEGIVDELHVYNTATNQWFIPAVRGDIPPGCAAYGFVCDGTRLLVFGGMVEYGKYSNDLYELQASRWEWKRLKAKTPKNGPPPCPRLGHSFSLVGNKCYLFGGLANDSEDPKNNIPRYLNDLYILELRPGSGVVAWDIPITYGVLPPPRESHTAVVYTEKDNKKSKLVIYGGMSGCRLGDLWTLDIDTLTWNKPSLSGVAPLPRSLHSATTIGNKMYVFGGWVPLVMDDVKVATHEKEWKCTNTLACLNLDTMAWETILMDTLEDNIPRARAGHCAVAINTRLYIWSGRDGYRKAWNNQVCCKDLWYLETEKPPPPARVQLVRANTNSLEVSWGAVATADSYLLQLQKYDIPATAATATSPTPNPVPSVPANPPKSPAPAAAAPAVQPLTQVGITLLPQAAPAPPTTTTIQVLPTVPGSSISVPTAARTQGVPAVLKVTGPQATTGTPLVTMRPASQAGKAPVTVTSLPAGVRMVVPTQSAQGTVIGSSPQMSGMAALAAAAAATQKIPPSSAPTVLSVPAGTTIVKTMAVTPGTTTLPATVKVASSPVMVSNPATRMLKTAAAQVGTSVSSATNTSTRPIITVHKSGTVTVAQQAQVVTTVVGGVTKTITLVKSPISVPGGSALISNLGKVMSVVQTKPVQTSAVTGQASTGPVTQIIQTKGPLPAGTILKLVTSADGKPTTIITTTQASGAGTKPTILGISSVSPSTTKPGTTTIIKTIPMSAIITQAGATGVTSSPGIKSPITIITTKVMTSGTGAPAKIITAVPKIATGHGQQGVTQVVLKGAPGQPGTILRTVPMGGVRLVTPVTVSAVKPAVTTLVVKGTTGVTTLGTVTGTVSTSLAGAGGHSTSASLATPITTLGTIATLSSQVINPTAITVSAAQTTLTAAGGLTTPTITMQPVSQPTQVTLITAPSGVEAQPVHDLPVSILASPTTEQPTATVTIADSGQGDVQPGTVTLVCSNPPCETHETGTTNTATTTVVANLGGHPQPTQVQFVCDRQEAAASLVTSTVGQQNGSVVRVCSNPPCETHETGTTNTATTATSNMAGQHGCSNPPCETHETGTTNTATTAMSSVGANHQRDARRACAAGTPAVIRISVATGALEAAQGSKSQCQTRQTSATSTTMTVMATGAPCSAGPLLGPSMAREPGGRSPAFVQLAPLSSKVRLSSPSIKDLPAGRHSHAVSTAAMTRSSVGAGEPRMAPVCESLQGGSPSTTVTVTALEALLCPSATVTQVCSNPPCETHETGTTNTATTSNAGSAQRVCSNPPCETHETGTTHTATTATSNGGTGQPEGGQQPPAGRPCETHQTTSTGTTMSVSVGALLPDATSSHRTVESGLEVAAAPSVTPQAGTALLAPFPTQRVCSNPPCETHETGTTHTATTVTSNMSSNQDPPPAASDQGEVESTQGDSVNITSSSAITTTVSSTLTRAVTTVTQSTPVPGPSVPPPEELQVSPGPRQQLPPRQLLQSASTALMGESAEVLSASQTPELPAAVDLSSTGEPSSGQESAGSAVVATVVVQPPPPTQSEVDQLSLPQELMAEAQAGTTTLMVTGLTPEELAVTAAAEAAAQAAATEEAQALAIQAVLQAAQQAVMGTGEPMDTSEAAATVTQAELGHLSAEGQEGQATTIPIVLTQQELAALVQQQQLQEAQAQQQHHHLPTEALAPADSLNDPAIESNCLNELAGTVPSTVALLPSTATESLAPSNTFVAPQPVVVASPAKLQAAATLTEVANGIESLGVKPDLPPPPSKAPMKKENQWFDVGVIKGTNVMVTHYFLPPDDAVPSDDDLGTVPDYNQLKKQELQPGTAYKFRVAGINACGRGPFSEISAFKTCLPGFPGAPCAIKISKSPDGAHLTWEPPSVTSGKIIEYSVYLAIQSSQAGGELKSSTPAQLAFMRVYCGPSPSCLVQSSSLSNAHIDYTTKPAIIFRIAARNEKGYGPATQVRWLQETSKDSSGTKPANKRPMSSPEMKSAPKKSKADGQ
Sequence of cysteines in MDA-MB-231 and Ramos cells (Homo sapiens, UniProt Q8NBS9) (Q8NBS9 33-432): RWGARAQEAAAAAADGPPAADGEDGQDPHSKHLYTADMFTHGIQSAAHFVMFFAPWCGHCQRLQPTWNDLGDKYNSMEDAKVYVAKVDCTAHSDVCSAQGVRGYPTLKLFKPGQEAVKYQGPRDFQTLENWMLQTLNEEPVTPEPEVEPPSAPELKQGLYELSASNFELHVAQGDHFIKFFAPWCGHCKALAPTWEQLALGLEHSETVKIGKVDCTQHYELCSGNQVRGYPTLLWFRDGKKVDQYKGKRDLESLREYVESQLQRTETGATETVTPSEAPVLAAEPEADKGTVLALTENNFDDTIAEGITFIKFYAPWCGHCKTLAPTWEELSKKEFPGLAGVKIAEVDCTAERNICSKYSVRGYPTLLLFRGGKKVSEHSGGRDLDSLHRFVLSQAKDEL

## C=CC(=O)Nc1cc(F)c(N2CCN(C(=O)OC(C)(C)C)CC2)c(F)c1 [compound 38]
[1]; 231
  isoTOP-ABPP ratio P46109_C249: 1.6
[2]
  isoTOP-ABPP ratio P51610_C1872: 1.3
[3]
  isoTOP-ABPP ratio Q96N67_C2125: 1.5
[4]; 231
  isoTOP-ABPP ratio Q9NXV6_C516: 1.8

## CC1CCc2ccccc2N1C(=O)CCl (stereo not drawn) [compound 45]
[5]
  isoTOP-ABPP ratio O15446_C86: 4.6
[1]; 231
  isoTOP-ABPP ratio P46109_C249: 20.0
[6]; 231
  isoTOP-ABPP ratio Q8NBS9_C350: 2.1
[7]
  isoTOP-ABPP ratio Q9NTX5_C133: 4.2

## COc1ccc2c(c1)CCCN2C(=O)CCl [compound 2]
[5]
  isoTOP-ABPP reactivity O15446_C86 CD3EAP: 3.9
[1]; 231
  isoTOP-ABPP reactivity P46109_0249 CRKL: 20.0
[2]
  isoTOP-ABPP reactivity P51610_C1872 HCFC1: 4.1
[7]
  isoTOP-ABPP reactivity Q9NTX5_C133 ECHDC1: 1.5
[4]; 231
  isoTOP-ABPP reactivity Q9NXV6_C516 CDKN2AEP: 20.0
[8]; 231
  isoTOP-ABPP reactivity Q9Y570_C381 PPME1: 12.6

## COc1cc2c(cc1OC)CN(C(=O)CCl)CC2 [compound 8]
[9]; 231
  isoTOP-ABPP reactivity P45984_C177 MAPK9: 20.0
[3]
  isoTOP-ABPP reactivity Q96N67_C2125 DOCK7: 5.4
[7]
  isoTOP-ABPP reactivity Q9NTX5_C133 ECHDC1: 2.0

## CC(C)CCOCCNC(=O)CCl [compound 27]
[10]; 231
  isoTOP-ABPP ratio A0AVT1_C347: 0.8
[9]; 231
  isoTOP-ABPP ratio P45984_C177: 0.5
[6]; 231
  isoTOP-ABPP ratio Q8NBS9_C350: 1.1
[3]
  isoTOP-ABPP ratio Q96N67_C2125: 0.9
[7]
  isoTOP-ABPP ratio Q9NTX5_C133: 1.5
[4]; 231
  isoTOP-ABPP ratio Q9NXV6_C516: 1.4

## O=C(CCl)N1CCN(S(=O)(=O)c2ccccc2F)CC1 [compound 10]
[10]; ramos
  isoTOP-ABPP ratio, cysteine A0AVT1_C347: 20.0
[5]
  isoTOP-ABPP ratio, cysteine O15446_C86: 4.7
[9]; 231
  isoTOP-ABPP ratio P45984_C177: 20.0
[1]; 231
  isoTOP-ABPP ratio P46109_C249: 20.0
[2]
  isoTOP-ABPP ratio, cysteine P51610_C1872: 1.5
[6]; ramos
  isoTOP-ABPP ratio Q8NBS9_C350: 1.4
[7]
  isoTOP-ABPP ratio Q9NTX5_C133: 1.6
[4]; 231
  isoTOP-ABPP ratio Q9NXV6_C516: 7.7
[8]; 231
  isoTOP-ABPP ratio, cysteine Q9Y570_C381: 4.7

## O=C(CCl)N1CCN(CC(=O)N2CCOCC2)CC1 [compound 29]
[9]; ramos
  isoTOP-ABPP ratio P45984_C177: 1.7
[1]; ramos
  isoTOP-ABPP ratio P46109_C249: 4.2
[4]; ramos
  isoTOP-ABPP ratio Q9NXV6_C516: 1.1
[8]; ramos
  isoTOP-ABPP ratio Q9Y570_C381: 1.2

## C=CC(=O)N(Cc1cccnc1)c1cc(C(F)(F)F)cc(C(F)(F)F)c1 [compound 31]
[10]; ramos
  isoTOP-ABPP ratio A0AVT1_C347: 1.9
[6]; 231
  isoTOP-ABPP ratio Q8NBS9_C350: 0.8
[3]
  isoTOP-ABPP ratio Q96N67_C2125: 0.8
